Data: ChEMBL document CHEMBL5579809, “Exploration of bromodomain ligand-linker conjugation sites for efficient CBP/p300 heterobifunctional degrader activity” (Bioorg Med Chem Lett, 2024)
Calls of active or inactive are those of the source. The calls are words filed in the database; no cut-off is given here.

Columns and labels:
[1] = target: T1, Protein cereblon/CREB-binding protein (Homo sapiens) (UniProt Q92793+Q96SW2); assay: PROTAC activity at CRBN/HiBiT-tagged CBP in human HAP1 cells assessed as induction of CBP degradation by measuring degradation rate at 10 nM measured over 24 hrs by luminescence based analysis; assay type: cell-based
[2] = target: T1, Protein cereblon/CREB-binding protein (Homo sapiens); assay: PROTAC activity at CRBN/HiBiT-tagged CBP in human HAP1 cells assessed as induction of CBP degradation by measuring degradation rate at 1000 nM measured over 24 hrs by luminescence based analysis; assay type: cell-based
[3] = target: T2, Protein cereblon/Histone acetyltransferase p300 (Homo sapiens) (UniProt Q09472+Q96SW2); assay: PROTAC activity at CRBN/HiBiT-tagged p300 in human HAP1 cells assessed as induction of p300 degradation by measuring degradation rate at 10 nM measured over 24 hrs by luminescence based analysis; assay type: cell-based
[4] = target: T1, Protein cereblon/CREB-binding protein (Homo sapiens); assay: PROTAC activity at CRBN/HiBiT-tagged CBP in human HAP1 cells assessed as total cumulative degradation by measuring AUC at 0.1 nM measured over 24 hrs by luminescence based analysis; assay type: cell-based
[5] = target: Protein cereblon/Bromodomain-containing protein 4 (Homo sapiens) (UniProt O60885+Q96SW2); assay: PROTAC activity at CRBN/HiBiT-tagged BRD4 in human HAP1 cells assessed as induction of BRD4 degradation measured over 24 hrs by luminescence based analysis; assay type: cell-based
[6] = target: T1, Protein cereblon/CREB-binding protein (Homo sapiens); assay: Binding affinity to recombinant CRBN/CBP bromodomain (unknown origin) assessed as ternary complex formation at 10 to 100 nM by Alphascreen-based proximity assay; assay type: protein assay; conditions: dose 10-100 nM
[7] = target: T1, Protein cereblon/CREB-binding protein (Homo sapiens); assay: PROTAC activity at CRBN/HiBiT-tagged CBP in human HAP1 cells assessed as induction of CBP degradation by measuring degradation rate at 100 nM measured over 24 hrs by luminescence based analysis; assay type: cell-based
[8] = target: T1, Protein cereblon/CREB-binding protein (Homo sapiens); assay: PROTAC activity at CRBN/HiBiT-tagged CBP in human HAP1 cells assessed as induction of CBP degradation by measuring degradation rate at 1 nM measured over 24 hrs by luminescence based analysis; assay type: cell-based
[9] = target: T1, Protein cereblon/CREB-binding protein (Homo sapiens); assay: PROTAC activity at CRBN/HiBiT-tagged CBP in human HAP1 cells assessed as total cumulative degradation by measuring AUC at 1000 nM measured over 24 hrs by luminescence based analysis; assay type: cell-based
[10] = target: T2, Protein cereblon/Histone acetyltransferase p300 (Homo sapiens); assay: PROTAC activity at CRBN/HiBiT-tagged p300 in human HAP1 cells assessed as total cumulative degradation by measuring AUC at 0.1 nM measured over 24 hrs by luminescence based analysis; assay type: cell-based
[11] = target: T2, Protein cereblon/Histone acetyltransferase p300 (Homo sapiens); assay: PROTAC activity at CRBN/HiBiT-tagged p300 in human HAP1 cells assessed as total cumulative degradation by measuring AUC at 1 nM measured over 24 hrs by luminescence based analysis; assay type: cell-based
[12] = target: T1, Protein cereblon/CREB-binding protein (Homo sapiens); assay: PROTAC activity at CRBN/HiBiT-tagged CBP in human HAP1 cells assessed as induction of CBP degradation by measuring maximal efficacy at 1 nM measured over 24 hrs by luminescence based analysis relative to control; assay type: cell-based
[13] = target: T2, Protein cereblon/Histone acetyltransferase p300 (Homo sapiens); assay: PROTAC activity at CRBN/HiBiT-tagged p300 in human HAP1 cells assessed as induction of p300 degradation by measuring degradation rate at 100 nM measured over 24 hrs by luminescence based analysis; assay type: cell-based
[14] = target: T1, Protein cereblon/CREB-binding protein (Homo sapiens); assay: PROTAC activity at CRBN/HiBiT-tagged CBP in human HAP1 cells assessed as induction of CBP degradation by measuring maximal efficacy at 10 nM measured over 24 hrs by luminescence based analysis relative to control; assay type: cell-based
[15] = target: T2, Protein cereblon/Histone acetyltransferase p300 (Homo sapiens); assay: PROTAC activity at CRBN/HiBiT-tagged p300 in human HAP1 cells assessed as total cumulative degradation by measuring AUC at 0.01 nM measured over 24 hrs by luminescence based analysis; assay type: cell-based
[16] = target: T1, Protein cereblon/CREB-binding protein (Homo sapiens); assay: PROTAC activity at CRBN/HiBiT-tagged CBP in human HAP1 cells assessed as total cumulative degradation by measuring AUC at 1 nM measured over 24 hrs by luminescence based analysis; assay type: cell-based
[17] = target: T1, Protein cereblon/CREB-binding protein (Homo sapiens); assay: PROTAC activity at CRBN/HiBiT-tagged CBP in human HAP1 cells assessed as induction of CBP degradation by measuring maximal efficacy at 100 nM measured over 24 hrs by luminescence based analysis relative to control; assay type: cell-based
[18] = target: T2, Protein cereblon/Histone acetyltransferase p300 (Homo sapiens); assay: PROTAC activity at CRBN/HiBiT-tagged p300 in human HAP1 cells assessed as induction of p300 degradation by measuring degradation rate at 1000 nM measured over 24 hrs by luminescence based analysis; assay type: cell-based
[19] = target: T2, Protein cereblon/Histone acetyltransferase p300 (Homo sapiens); assay: PROTAC activity at CRBN/HiBiT-tagged p300 in human HAP1 cells assessed as induction of p300 degradation by measuring maximal efficacy at 1 nM measured over 24 hrs by luminescence based analysis relative to control; assay type: cell-based
[20] = target: T2, Protein cereblon/Histone acetyltransferase p300 (Homo sapiens); assay: PROTAC activity at CRBN/HiBiT-tagged p300 in human HAP1 cells assessed as total cumulative degradation by measuring AUC at 100 nM measured over 24 hrs by luminescence based analysis; assay type: cell-based
[21] = target: T2, Protein cereblon/Histone acetyltransferase p300 (Homo sapiens); assay: PROTAC activity at CRBN/HiBiT-tagged p300 in human HAP1 cells assessed as total cumulative degradation by measuring AUC at 1000 nM measured over 24 hrs by luminescence based analysis; assay type: cell-based
[22] = target: T1, Protein cereblon/CREB-binding protein (Homo sapiens); assay: PROTAC activity at CRBN/HiBiT-tagged CBP in human HAP1 cells assessed as total cumulative degradation by measuring AUC at 10 nM measured over 24 hrs by luminescence based analysis; assay type: cell-based
[23] = target: T2, Protein cereblon/Histone acetyltransferase p300 (Homo sapiens); assay: PROTAC activity at CRBN/HiBiT-tagged p300 in human HAP1 cells assessed as total cumulative degradation by measuring AUC at 10 nM measured over 24 hrs by luminescence based analysis; assay type: cell-based
[24] = target: T1, Protein cereblon/CREB-binding protein (Homo sapiens); assay: PROTAC activity at CRBN/HiBiT-tagged CBP in human HAP1 cells assessed as total cumulative degradation by measuring AUC at 0.01 nM measured over 24 hrs by luminescence based analysis; assay type: cell-based
[25] = target: T2, Protein cereblon/Histone acetyltransferase p300 (Homo sapiens); assay: PROTAC activity at CRBN/HiBiT-tagged p300 in human HAP1 cells assessed as induction of p300 degradation by measuring maximal efficacy at 1000 nM measured over 24 hrs by luminescence based analysis relative to control; assay type: cell-based
[26] = target: T2, Protein cereblon/Histone acetyltransferase p300 (Homo sapiens); assay: PROTAC activity at CRBN/HiBiT-tagged p300 in human HAP1 cells assessed as induction of p300 degradation by measuring maximal efficacy at 10 nM measured over 24 hrs by luminescence based analysis relative to control; assay type: cell-based
[27] = target: T1, Protein cereblon/CREB-binding protein (Homo sapiens); assay: PROTAC activity at CRBN/HiBiT-tagged CBP in human HAP1 cells assessed as total cumulative degradation by measuring AUC at 100 nM measured over 24 hrs by luminescence based analysis; assay type: cell-based
[28] = target: T2, Protein cereblon/Histone acetyltransferase p300 (Homo sapiens); assay: PROTAC activity at CRBN/HiBiT-tagged p300 in human HAP1 cells assessed as induction of p300 degradation by measuring degradation rate at 1 nM measured over 24 hrs by luminescence based analysis; assay type: cell-based
[29] = target: T1, Protein cereblon/CREB-binding protein (Homo sapiens); assay: PROTAC activity at CRBN/HiBiT-tagged CBP in human HAP1 cells assessed as induction of CBP degradation by measuring maximal efficacy at 1000 nM measured over 24 hrs by luminescence based analysis relative to control; assay type: cell-based
[30] = target: T2, Protein cereblon/Histone acetyltransferase p300 (Homo sapiens); assay: PROTAC activity at CRBN/HiBiT-tagged p300 in human HAP1 cells assessed as induction of p300 degradation by measuring maximal efficacy at 100 nM measured over 24 hrs by luminescence based analysis relative to control; assay type: cell-based
[31] = target: T2, Protein cereblon/Histone acetyltransferase p300 (Homo sapiens); assay: Binding affinity to recombinant CRBN/p300 bromodomain (unknown origin) assessed as ternary complex formation at 10 to 100 nM by Alphascreen-based proximity assay; assay type: protein assay; conditions: dose 10-100 nM
[32] = target: T1, Protein cereblon/CREB-binding protein (Homo sapiens); assay: PROTAC activity at CRBN/HiBiT-tagged CBP in human HAP1 cells assessed as induction of CBP degradation by measuring maximal efficacy at 0.1 nM measured over 24 hrs by luminescence based analysis relative to control; assay type: cell-based

T1 sequence (Q92793 2-2442 limits assumed): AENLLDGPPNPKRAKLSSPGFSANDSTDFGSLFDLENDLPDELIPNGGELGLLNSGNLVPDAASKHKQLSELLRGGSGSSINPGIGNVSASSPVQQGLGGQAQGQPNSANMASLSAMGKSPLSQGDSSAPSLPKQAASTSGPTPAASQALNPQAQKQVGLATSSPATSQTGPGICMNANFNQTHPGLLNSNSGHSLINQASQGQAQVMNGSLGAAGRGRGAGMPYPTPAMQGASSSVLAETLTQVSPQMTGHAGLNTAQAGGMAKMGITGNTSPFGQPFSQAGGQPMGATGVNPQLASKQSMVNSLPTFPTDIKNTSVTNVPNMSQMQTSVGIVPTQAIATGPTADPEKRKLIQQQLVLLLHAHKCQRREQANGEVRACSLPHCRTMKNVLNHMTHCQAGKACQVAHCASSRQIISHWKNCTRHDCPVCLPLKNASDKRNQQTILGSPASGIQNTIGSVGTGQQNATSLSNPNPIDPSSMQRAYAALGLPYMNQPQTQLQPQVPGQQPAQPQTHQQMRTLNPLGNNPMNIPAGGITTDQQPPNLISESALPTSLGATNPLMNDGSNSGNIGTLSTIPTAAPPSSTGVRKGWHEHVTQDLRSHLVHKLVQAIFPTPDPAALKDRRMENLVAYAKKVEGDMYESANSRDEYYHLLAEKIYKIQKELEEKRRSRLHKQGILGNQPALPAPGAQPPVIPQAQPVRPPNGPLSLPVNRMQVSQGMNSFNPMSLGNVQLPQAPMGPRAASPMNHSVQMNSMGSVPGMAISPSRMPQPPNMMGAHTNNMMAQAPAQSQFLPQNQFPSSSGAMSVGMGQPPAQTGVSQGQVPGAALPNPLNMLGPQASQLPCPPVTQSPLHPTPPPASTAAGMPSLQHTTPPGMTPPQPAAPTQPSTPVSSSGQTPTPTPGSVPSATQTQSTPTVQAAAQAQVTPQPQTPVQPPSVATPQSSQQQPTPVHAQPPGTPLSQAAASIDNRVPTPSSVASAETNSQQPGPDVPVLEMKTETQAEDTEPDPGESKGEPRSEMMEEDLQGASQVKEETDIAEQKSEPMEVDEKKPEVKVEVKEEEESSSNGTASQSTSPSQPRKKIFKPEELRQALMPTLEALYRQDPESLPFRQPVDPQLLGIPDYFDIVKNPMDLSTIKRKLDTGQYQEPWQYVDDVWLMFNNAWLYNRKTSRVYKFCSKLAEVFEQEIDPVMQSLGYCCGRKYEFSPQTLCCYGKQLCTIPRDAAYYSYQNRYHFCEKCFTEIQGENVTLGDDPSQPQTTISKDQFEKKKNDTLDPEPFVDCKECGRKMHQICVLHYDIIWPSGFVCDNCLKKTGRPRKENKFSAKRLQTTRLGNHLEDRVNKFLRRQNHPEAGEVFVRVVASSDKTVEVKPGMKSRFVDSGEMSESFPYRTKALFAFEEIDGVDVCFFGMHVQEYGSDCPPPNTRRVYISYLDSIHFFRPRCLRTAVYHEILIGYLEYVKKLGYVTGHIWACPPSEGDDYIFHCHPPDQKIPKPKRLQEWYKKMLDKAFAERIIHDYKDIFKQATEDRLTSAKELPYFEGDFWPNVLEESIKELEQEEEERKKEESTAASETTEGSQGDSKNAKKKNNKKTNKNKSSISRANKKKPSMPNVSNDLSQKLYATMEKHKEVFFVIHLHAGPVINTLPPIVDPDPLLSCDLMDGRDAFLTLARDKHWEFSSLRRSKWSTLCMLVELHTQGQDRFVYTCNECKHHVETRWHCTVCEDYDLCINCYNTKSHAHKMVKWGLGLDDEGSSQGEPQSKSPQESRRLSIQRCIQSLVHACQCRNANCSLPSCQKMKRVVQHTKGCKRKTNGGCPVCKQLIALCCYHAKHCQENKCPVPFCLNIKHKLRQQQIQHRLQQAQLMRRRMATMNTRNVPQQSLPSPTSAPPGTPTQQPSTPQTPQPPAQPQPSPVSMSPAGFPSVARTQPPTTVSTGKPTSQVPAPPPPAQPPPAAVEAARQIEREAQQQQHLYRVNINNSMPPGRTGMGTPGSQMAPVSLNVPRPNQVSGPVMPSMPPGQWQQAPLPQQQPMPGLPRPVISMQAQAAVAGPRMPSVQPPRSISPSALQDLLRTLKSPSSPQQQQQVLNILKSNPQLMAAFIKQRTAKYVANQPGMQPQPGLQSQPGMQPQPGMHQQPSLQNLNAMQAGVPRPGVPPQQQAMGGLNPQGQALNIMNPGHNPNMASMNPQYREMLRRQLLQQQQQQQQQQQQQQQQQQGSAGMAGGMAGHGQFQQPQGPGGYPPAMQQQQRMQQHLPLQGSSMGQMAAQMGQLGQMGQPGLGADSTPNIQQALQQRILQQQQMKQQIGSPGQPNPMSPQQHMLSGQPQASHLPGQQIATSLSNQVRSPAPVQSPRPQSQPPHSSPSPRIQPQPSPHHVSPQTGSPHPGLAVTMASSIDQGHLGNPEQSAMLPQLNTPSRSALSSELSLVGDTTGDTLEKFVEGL
T1 sequence (Q96SW2 whole entry partner): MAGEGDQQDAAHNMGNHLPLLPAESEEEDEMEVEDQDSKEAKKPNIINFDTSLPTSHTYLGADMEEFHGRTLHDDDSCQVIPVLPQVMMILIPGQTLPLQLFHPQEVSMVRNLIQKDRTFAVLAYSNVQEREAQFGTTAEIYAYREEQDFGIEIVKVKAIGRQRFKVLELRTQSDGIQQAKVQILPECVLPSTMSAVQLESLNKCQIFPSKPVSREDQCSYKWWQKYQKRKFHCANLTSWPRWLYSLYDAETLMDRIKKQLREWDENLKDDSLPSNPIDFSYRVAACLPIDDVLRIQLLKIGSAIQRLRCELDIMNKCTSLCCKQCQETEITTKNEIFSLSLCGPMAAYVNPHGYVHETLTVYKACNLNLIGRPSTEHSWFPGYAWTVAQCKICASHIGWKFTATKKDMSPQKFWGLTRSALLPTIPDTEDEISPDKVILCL
Protein cereblon/Bromodomain-containing protein 4 (Homo sapiens), sequence (Q96SW2 whole entry, looked up, other chains not shown): as the sequence (Q96SW2 whole entry partner) above

SMILES: CNC(=O)N1CCc2c(c(N3CCCc4cc(-c5cnn(CC(=O)NCCOCCNc6ccc7c(c6)C(=O)N(C6CCC(=O)NC6=O)C7=O)c5)c(C(F)F)cc43)nn2C2CCOCC2)C1 (stereo not given)
- Activity [1]: 0.21 h⁻¹
- Activity [2]: 0.12 h⁻¹
- Activity [3]: 0.22 h⁻¹
- AUC [4]: 25.5
- Activity [5]: inactive
- Activity [6]: Active
- Activity [7]: 0.22 h⁻¹
- Activity [8]: 1.5 10^-4/hr
- AUC [9]: 15.1
- AUC [10]: 27.3
- AUC [11]: 22.6
- Emax [12]: 20%
- Activity [13]: 0.26 h⁻¹
- Emax [14]: 44%
- AUC [15]: 25.7
- AUC [16]: 22.6
- Emax [17]: 63%
- Activity [18]: 0.14 h⁻¹
- Emax [19]: 18%
- AUC [20]: 10.4
- AUC [21]: 13.5
- AUC [22]: 16
- AUC [23]: 13.7
- AUC [24]: 24.2
- Emax [25]: 65%
- Emax [26]: 55%
- AUC [27]: 12.1
- Activity [28]: 0.004 h⁻¹
- Emax [29]: 59%
- Emax [30]: 69%
- Activity [31]: Active

SMILES: CNC(=O)N1CCc2c(c(N3CCN(C(=O)NCCOCCOCCOCCOCCOCCOCCNc4ccc5c(c4)C(=O)N(C4CCC(=O)NC4=O)C5=O)c4cc(-c5cnn(C)c5)c(C(F)(F)F)cc43)nn2C2CCOCC2)C1 (stereo not given)
- AUC [4]: 24.4
- Activity [5]: inactive
- Activity [6]: Active
- AUC [9]: 23
- AUC [10]: 27.5
- AUC [11]: 27.4
- AUC [15]: 27.7
- AUC [16]: 24.5
- Activity [18]: 0.05 h⁻¹
- AUC [20]: 24.2
- AUC [21]: 20.5
- AUC [22]: 24.2
- AUC [23]: 26.4
- AUC [24]: 24.9
- Emax [25]: 33%
- AUC [27]: 24.1
- Activity [31]: Active

SMILES: CNC(=O)N1CCc2c(c(N3CCCc4cc(-c5cnn(C)c5)c(C(F)F)cc43)nn2C2CCN(C(=O)CCOCCOCCOCCOCCOCCOCCNc3ccc4c(c3)C(=O)N(C3CCC(=O)NC3=O)C4=O)CC2)C1 (stereo not given)
- Activity [1]: 0.68 h⁻¹
- Activity [2]: 0.42 h⁻¹
- Activity [3]: 0.49 h⁻¹
- AUC [4]: 24.2
- Activity [5]: inactive
- Activity [6]: Active
- Activity [7]: 0.79 h⁻¹
- Activity [8]: 0.27 h⁻¹
- AUC [9]: 6.6
- AUC [10]: 26.4
- AUC [11]: 18.6
- Emax [12]: 33%
- Activity [13]: 0.74 h⁻¹
- Emax [14]: 72%
- AUC [15]: 27.3
- AUC [16]: 17.8
- Emax [17]: 86%
- Activity [18]: 0.46 h⁻¹
- Emax [19]: 32%
- AUC [20]: 5.2
- AUC [21]: 6
- AUC [22]: 8.1
- AUC [23]: 9.3
- AUC [24]: 26.3
- Emax [25]: 83%
- Emax [26]: 68%
- AUC [27]: 4.7
- Activity [28]: 0.19 h⁻¹
- Emax [29]: 81%
- Emax [30]: 83%
- Emax [32]: 8.6%
- Activity [31]: Active
